Data on two molecules can be found in patent EP0348399B1, “SORBIN AND PEPTIDE DERIVATIVES WHICH INCREASE ABORPTION BY THE MUCOUS MEMBRANES” (INSTITUT NATIONAL DE LA SANTE ET DE LA RECHERCHE MEDICALE …, priority 1988, dated 1992).

In one data set the test system is rat. As to the kind of experiment: Water and electrolyte movements in ligated intestinal loops of the anaesthetised rat, peptides given by intravenous infusion. The data set is classed as in vivo. As to conditions: rat duodenal loop, i.v. infusion, dose 50 pmol/100g, 1 h contact; controls (TEMOINS) = 0; (-) absorption, (+) secretion; mean, groups of 8 or more. As for the experimental part:
Chez le rat privé d'aliment depuis 45 heures mais recevant de l'eau à volonté, une anesthésie est assurée par le pentobarbital sodique, un cathéter est placé sur une jugulaire, trois anses duodénale, jéjunale et iléale sont constituées entre deux ligatures. Un ml de solution test contenant 70 mM de NaCl, 5,2 mM de KCl, […] de CaCl₂, 10 mM de CO₃Na ET 136 mM de mannitol est instillé dans chaque anse, le PEG 4000 marqué au ³H est utilisé comme marqueur non absorbable, le ²²Na ou le ³⁶Cl comme marqueurs des flux bidirectionnels de sodium ou de chlore. La sorbine ou les peptides de synthèse sont administrés par voie veineuse dans du NaCl à 0,9%, à un débit de 3 ml/h. Après une heure de contact, le liquide restant dans la lumière de l'anse est collecté, le volume et les concentrations de Na, Ca, K, Cl et HCO₃ ainsi que la radioactivité liée au tritium, au chlore ou au sodium sont mesurés.
L'absorption est indiquée par un signe (-), la sécrétion par un signe (+). les résultats concernent des groupes de 8 animaux ou plus M ± SEM ^. P<0.05 ^..P<0.01

The nature of data set [1]: Arterial blood pressure measured by carotid catheterisation. Type of data set: in vivo. As to conditions: measured by catheterisation of the carotid, result in words.

Consider HEPTAPEPTIDE, for which, in the data set on rat, the Cl is given as -36,1 µeq, the Eau is recorded as -0,20 ml and the Na is listed as -30,7 µeq.

Regarding `CC[C@H](C)[C@H](NC(=O)[C@H](Cc1ccc(O)cc1)NC(=O)[C@@H](NC(=O)[C@H](CCCNC(=N)N)NC(=O)[C@@H](N)CC(=O)O)C(C)C)C(=O)N[C@@H](Cc1cnc[nH]1)C(=O)N1CCC[C@H]1C(=O)N[C@@H](Cc1ccccc1)C(=O)O` [ANGIOTENSINE II, angiotensine II], in data set [1], the “tension artérielle” value is on record as “augmentation de la tension artérielle”.
